Test: 2,2-diphenyl-1-picrylhydrazyl (DPPH) radical scavenging assay
Format: biochemical
Conditions: for DPPH Scavenging %: 30 minutes, room temperature, dark, absorption at 517 nm; for antioxidant activity (quenching of the DPPH radical), in words: 25, 50 and 100 μg/mL
Text: The antioxidant activity of the FFAs has been evaluated by a range of methods, including spin trapping of N-oxide radicals (Okada et al. (1996) Biol. Pharm. Bull. 19: 1607), inhibition of radically initiated oxygen uptake in linoleic acid (Okada et al. (1990) J. Am. Oil Chem. Soc. 67: 858) and unsaturated fatty acid moieties of phosphatidyl choline liposomes (Ishii et al. (1989) Chem. Pharm. Bull. 37: 1396), and acting as a substrate for plant lipoxygenase (Batna and Spiteller (1994) Lipids 29: 397). We have evaluated the free radical scavenging abilities of synthetic FFAs 5a (n=1, m=9, R^1=R^2=H) and 5b (n=1, m=9, R^1=R^2=Me) against butylated hydroxytoluene (BHT) by 2,2-diphenyl-1-picrylhydrazyl (DPPH) assay.
The method of Moon and Shibamoto (Moon and Shibamoto (2009) J. Agric. Food Chem. 57: 1655) was used to evaluate antioxidant activity. DPPH (0.0177 g) was dissolved in methanol (MeOH) (100 mL) and 500 μL of this solution was added into test tubes containing 11-(5-propylfuran-2-yl)undecanoic acid and 11-(3,4-dimethyl-5-propylfuran-2-yl)undecanoic acid at concentrations of 25, 50, and 100 μg/mL after dilution of stock solutions with MeOH to 1.0 mL total volume. A 1.0 mg/mL BHT stock solution (100 μL) was diluted with 400 μL methanol and the DPPH solution (500 μL). A control solution was prepared by adding methanol (500 μL) into the DPPH solution (500 μL), and a methanol blank was used for the baseline correction. The tubes were allowed to stand at room temperature in the dark for 30 minutes and the change in the absorption at 517 nm was measured by UV-visible spectrometry. Radical scavenging ability was expressed as DPPH scavenging % and calculated using this formula: DPPH scavenging %=(control abs.−sample abs./control abs.)×100.

Row | Compound | inhibition (DPPH assay) (100 μg/mL) [%] | DPPH Scavenging % (100 μg/mL) [%] | DPPH Scavenging % (25 μg/mL) [%] | DPPH Scavenging % (50 μg/mL) [%] | antioxidant activity (quenching of the DPPH radical), in words | antioxidant power relative to BHT on a mass basis (of BHT, mass basis, 100 μg/mL) [%] | antioxidant power relative to BHT based on molar concentrations (of BHT, recalculated on molar concentrations) [%]
1 | Cc1cc(C(C)(C)C)c(O)c(C(C)(C)C)c1 [BHT, butylated hydroxytoluene, reference compound] | 93 | 93 |  |  |  |  | 
2 | CCCc1ccc(CCCCCCCCCCC(=O)O)o1 [Compound 5a, 11-(5-Propylfuran-2-yl)undecanoic Acid] |  | −3 | 4 | −2 | virtually no antioxidant activity |  | 
3 | CCCc1oc(CCCCCCCCCCC(=O)O)c(C)c1C [Compound 5b, 11-(3,4-Dimethyl-5-propylfuran-2-yl)undecanoic Acid] | 53 | 53 | 7 | 27 | concentration-dependent quenching of the DPPH radical | 57 | 83

Reference: patent publication US10399953B2, “Preparation of furan fatty acids from 5-(chloromethyl)furfural” (THE REGENTS OF THE UNIVERSITY OF CALIFORNIA, priority 2015, dated 2019)
